In series [1] the test system is cisplatin-induced emesis. As to the kind of experiment: Effect on cisplatin-induced emesis in ferrets. The format is in vivo, Male ferrets. As to conditions: Mustela putorius, 0.5 h, read-out: ED50 cisplatin-induced emesis, ferret. The procedure:
Effect on Cisplatin-induced Emesis in Ferrets
Male ferrets (Marshall Lab., U.S.A.) weighing approximately 1 kg were used. For intravenous injection, a cannule was implanted in the cervical vein under pentobarbital anethesia, 3-4 days in advance of the experiment. To each test group each a prescribed dose of a test compound as dissolved or suspended in 0.5% tragacanth solution was orally administered, and 30 minutes thereafter, cisplatin (Sigma) 10 mg/kg (physiological salt solution, 3 ml/kg) was administered intravenously through the cannule.

Series [2] can be described thus: Inhibitory effect on exploratory activity. Also noted: species or system Male mice (Std-ddy strain). The conditions noted are these: mouse, in vivo; mice, oral, 2 hours after administration, counts for 3 minutes; read-out: ED50 inhibition of exploratory activity. The procedure: Inhibitory Effect on Exploratory Activity
Male mice (5 per group, Std-ddy strain, weighing 20-25 g) were used as the test animals, each of which was orally administered with a test compound which was dissolved or suspended in 0.5% tragacanth solution and after 2 hours from the administration put in a test cage (23×35×30 cm) on Animex activity meter (Farad Co.). Exploratory activity of each mouse was counted for the following 3 minutes. The mean counts of exploratory activities (count/3 min.) per group of the tested mice was compared with that of the control group to calculate the inhibition rate, and the effective dose (ED50 value) of each test compound for 50% inhibition was determined by probit analysis.

The test system of series [3] is cisplatin-induced emesis. As to the kind of experiment: Effect on cisplatin-induced emesis in dog. The class given is in vivo, Beagle dogs. The conditions noted are these: Canis lupus familiaris, 0.5 h, read-out: ED50 cisplatin-induced emesis, dog. The procedure: Effect on Cisplatin-induced Emesis in Dog
Four to five Beagle dogs (body weight: 10-12 kg) per group were used to examine the inhibitory effect of the test compounds on cisplatin-induced emesis. To each test group each a prescribed dose of a test compound as dissolved or suspended in 0.5% tragacanth solution was orally administered, and 30 minutes thereafter, cisplatin (Sigma) 3 mg/kg (physiological salt solution, 3 ml/kg) was intravenously administered.

Series [4] addresses T1, serotonin S3 (5-HT3) receptor (Rattus norvegicus, UniProt P35563).
T1 sequence (P35563 24-483): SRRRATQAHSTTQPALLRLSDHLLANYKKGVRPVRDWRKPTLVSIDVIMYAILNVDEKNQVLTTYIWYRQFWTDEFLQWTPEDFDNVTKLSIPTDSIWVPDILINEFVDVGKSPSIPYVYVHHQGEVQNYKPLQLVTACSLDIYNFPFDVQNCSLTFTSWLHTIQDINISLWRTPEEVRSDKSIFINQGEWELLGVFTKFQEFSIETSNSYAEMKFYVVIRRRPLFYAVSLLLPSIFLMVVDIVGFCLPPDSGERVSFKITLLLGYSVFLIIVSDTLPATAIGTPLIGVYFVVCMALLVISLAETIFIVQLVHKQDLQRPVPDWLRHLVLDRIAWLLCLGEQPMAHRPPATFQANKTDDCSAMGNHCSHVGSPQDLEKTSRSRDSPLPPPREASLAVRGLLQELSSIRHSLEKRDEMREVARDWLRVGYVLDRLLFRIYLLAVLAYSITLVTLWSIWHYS
As to the kind of experiment: Inhibitory effect on von Bezold-Jarisch reflex (anti-serotonin S3 activity). The format is in vivo, Male Wister rats. Also noted: Male Wister rats weighing 250-350 g were anesthetized with urethane; from tissue; host or cells: whole animal in vivo (male Wistar rats). As to conditions: 0.05 h, test compound intravenous 3 minutes before 2-methylserotonin 10-30 μg/kg i.v., read-out: ED50 von Bezold-Jarisch Reflex Inhibition. On the procedure: Inhibitory Effect on von Bezold-Jarisch Reflex (Anti-serotonin S3 Activity)
This test was carried out following the method of Fozard, et al. [cf. Arch. […] Male Wister rats weighing 250-350 g were anesthetized with urethane (1.5 g/kg, intraperitoneal) and set on their backs. Electrocardiogram (lead II) and a heart rate on the animals were recorded on inkwriting oscillograph via a biophysical amplifier and pulse rate tachometer, respectively. […] A fixed amount of 2-methylserotonin was repeatedly administered at 15-minute intervals until stable responses were obtained, and then a test compound was administered intravenously, 3 minutes before administration of 2-methylserotonin.

Series [5] has as its system apomorphine-induced emesis. As to the kind of experiment: Inhibitory effect on apomorphine-induced emesis in dog. The conditions noted are these: Canis lupus familiaris, read-out: ED50 apomorphine-induced emesis, dog. The format is in vivo, Beagle dogs. On the procedure:
Inhibitory Effect on Apomorphine-induced Emesis
Three to four Beagle dogs (body weight: 8-15 kg) per group were used to examine the inhibitory effect of the test compounds on apomorphine-inducedemesis. This test has been commonly conducted as a method for detecting dopamine blocker. Each of the test animals was orally administered with a prescribed dose of a test compound as dissolved or suspended in 0.5% tragacanth solution, and two hours thereafter, was administered with apomorphine hydrochloride (0.3 mg/kg) by subcutaneous injection at the back.

Series [6] concerns the target T1, serotonin S3 (5-HT3) receptor. As to the kind of experiment: Serotonin S3 receptor-binding (in vitro receptor binding assay, [3H] quipazine). Also noted: Crude synaptosome fractions prepared from rat brain were used as receptor samples; from tissue; host or cells: rat brain, crude synaptosome fraction.
Procedure: (§1) Dopamine D2 receptor-binding and serotonin S3 receptor-binding activities (in vitro receptor binding assay)
(§2) Crude synaptosome fractions prepared from rat brain were used as receptor samples, and [^3 H] spiperone (D2) and [^3 H] quipazine (S3), as labelled ligands. A buffer solution containing each of the receptor sample and labelled ligand (final volume: 1 ml) was incubated for a prescribed period in the presence of one of the test compounds at various concentration levels, and thereafter the radioactive ligand bound to the receptor was isolated onto a filter using a cell-harvester (Brandel Co.) and radioactivity on each filter was measured with a liquid scintillation counter to determine the total amount bound to the receptor. Specifically bound amount was calculated by subtracting non-specifically bound amount from the total amount bound, said non-specifically bound amount being that bound under the presence of an excessive amount of non-labelled ligand [spiperone (D2) and [^3 H] quipazine (S3)] which was concurrently measured. The concentration level of the test compound at which specific binding of labelled ligand was inhibited by 50% (IC50 value) was calculated by probit analysis.
The next series has as its target Dopamine D2 receptor (Rattus norvegicus, UniProt P61169). As to the kind of experiment: biochemical.
Where [7] appears, read: ferret, oral, 30 minutes before cisplatin 10 mg/kg i.v., emetic episodes within 3 hours.
The mark [8] stands for this setting: dog, oral, 30 minutes before cisplatin 3 mg/kg i.v., emetic episodes within 5 hours.
Where [9] appears, read: dog, oral, 2 hours before apomorphine hydrochloride 0.3 mg/kg s.c., emetic episodes within 1 hour.

Counter-ions that a name gives are not always drawn. Like-named read-outs stand apart in the source and are kept apart here. A value given as a limit tells only on which side of the number the result lay.

Chain of Dopamine D2 receptor (P61169 whole entry): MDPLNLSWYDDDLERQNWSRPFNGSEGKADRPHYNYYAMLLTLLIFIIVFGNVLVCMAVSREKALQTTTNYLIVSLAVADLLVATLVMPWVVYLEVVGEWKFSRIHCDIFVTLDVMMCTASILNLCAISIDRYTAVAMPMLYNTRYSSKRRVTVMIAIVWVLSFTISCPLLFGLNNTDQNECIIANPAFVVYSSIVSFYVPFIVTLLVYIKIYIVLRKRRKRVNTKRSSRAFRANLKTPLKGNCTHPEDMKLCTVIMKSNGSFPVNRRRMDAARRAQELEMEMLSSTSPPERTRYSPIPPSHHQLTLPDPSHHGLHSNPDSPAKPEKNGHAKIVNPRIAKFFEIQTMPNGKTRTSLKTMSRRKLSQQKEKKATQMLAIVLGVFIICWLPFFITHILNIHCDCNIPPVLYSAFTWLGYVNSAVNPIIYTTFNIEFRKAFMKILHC
Procedure for Dopamine D2 receptor: as §1, §2

For orientation: ED50 means the dose at which the effect has come halfway, by size or by number of responders. For orientation: IC50 means the concentration that gives 50% inhibition. Consider `CCN(CC)CCNC(=O)c1cc(Cl)c(N)cc1OC.Cl.Cl.O` [metoclopramide hydrochloride, 4-amino-5-chloro-N-[2-(diethylamino)ethyl]-2-methoxybenzamide dihydrochloride monohydrate], for which the ED50 amounted to 0.98 mg/kg in the series on cisplatin-induced emesis [1] (setting [7]), 3.96 mg/kg with cisplatin-induced emesis [3] (setting [8]), 0.181 mg/kg in series [4] and 0.45 mg/kg in series [5] (setting [9]). Further, the ED50 at 2 h in series [2] came out at 22.4 mg/kg. In addition, the IC50 in series [6] came out at 880 nM.
In the case of `CCN1CCN(C)C[C@@H](NC(=O)c2cc(Br)c(NC)nc2OC)C1.O=C(O)/C=C/C(=O)O.O=C(O)/C=C/C(=O)O` [Example 1, (R)-5-bromo-N-(1-ethyl-4-methylhexahydro-1H-1,4-diazepin-6-yl)-2-methoxy-6-methylamino-3-pyridinecarboxamide Difumarate], the ED50 in the series with cisplatin-induced emesis [1] (setting [7]) came out at 0.03 mg/kg; with cisplatin-induced emesis [3] (setting [8]) it was 0.29 mg/kg; in series [4], 0.0019 mg/kg; in series [5] (setting [9]), 0.19 mg/kg. Besides, the ED50 at 2 h in series [2] came out at 48.5 mg/kg. For the same molecule, the IC50 against Dopamine D2 receptor amounted to 11.7 nM; in series [6] (crude synaptosome fractions from rat brain, [3H] quipazine (S3), read-out: IC50 S3) it was 1 nM.
On to `CN1C2CCCC1CC(NC(=O)c1nn(C)c3ccccc13)C2` (stereo not drawn) [granisetron hydrochloride, endo-1-methyl-N-(9-methyl-9-azobicyclo-[3.3.1]non-3-yl)-1H-indazole-3-carboxamide hydrochloride], for which, in series [4], the ED50 turned out to be 0.00026 mg/kg. The IC50 against Dopamine D2 receptor was greater than 100000 nM.
For `Cc1nccn1CC1CCc2c(c3ccccc3n2C)C1=O.Cl` (centres unmarked) [ondansetron hydrochloride, 1,2,3,9-tetrahydro-9-methyl-3-[(2-methyl-1H-imidazol-1-yl)methyl]-4H-carbazol-4-one hydrochloride], the ED50 with cisplatin-induced emesis [1] (setting [7]) is 0.1 mg/kg; in the series on cisplatin-induced emesis [3] (setting [8]), 0.16 mg/kg; in series [4] it was 0.0011 mg/kg; in series [5] (setting [9]), greater than 10 mg/kg. For the same molecule, the IC50 on Dopamine D2 receptor was greater than 100000 nM.
With `O=c1[nH]c2ccccc2n1CCCN1CCC(n2c(=O)[nH]c3cc(Cl)ccc32)CC1` [domperidone, 5-chloro-1-[1-[3-(2,3-dihydro-2-oxo-1H-benzimidazol-1-yl)propyl]-4-piperidinyl]-1,3-dihydro-2H-benzimidazol-2-one], the ED50 with cisplatin-induced emesis [1] (po) is greater than 10 mg/kg; in the series with cisplatin-induced emesis [3] (po), greater than 3 mg/kg; in series [5] (po, 2 h), 0.02 mg/kg.
